Experimental data: patent US10364263B2, “Cyclic phosphates and cyclic phosphoramidates for the treatment of neurologic disorders” (Retrophin, Inc., priority 2015, dated 2019)
Like-named read-outs stand apart in the source and are kept apart here.

Assays:
[1] = Stability in mouse plasma; assay type: in vitro ADME
Summary of the method: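 Test compound at 3 μM (0.1% DMSO) was incubated in mouse or human plasma at 37 °C and sampled in duplicate at 0, 10, 20, 30, 40 and 60 min. Reactions were stopped with acetonitrile/formic acid containing internal standard. Remaining parent was measured by UPLC-MS/MS without a calibration curve.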

[2] = test system: PANK2 silenced human neuroblastoma IMR32 cells (PANK2−/−); assay: Coenzyme A assay in PANK2 silenced cells (LC-MS quantification of free CoA); assay type: cell-based; settings: compound added twice (24 h + 24 h), relative to 0.1% DMSO controls
Summary of the method: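 PANK2 shRNA-silenced IMR32 neuroblastoma cells were treated with compound (0.1% DMSO) for 24 h, then re-dosed with fresh compound for a further 24 h at 37 °C. TFA extracts of 1×10^6 cells were assayed for free CoA by LC-MS/MS (MRM 768.1→261.6/136.1). Results are given as fold change versus DMSO controls.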

[3] = Diastereoisomer A (upfield shift in 31P NMR), 3 μM, 37° C., mouse plasma, read-out: t1/2, Mouse Plasma, Diastereoisomer A
[4] = Diastereoisomer B, 3 μM, 37° C., mouse plasma

SMILES	half-life at 3 µM ([1]; mouse, plasma)	t1/2, Mouse Plasma, Diastereoisomer B ([1]; mouse, plasma, 3 µM)	PANK2−/− CoA (Fold Increase): fold increase in Coenzyme A (CoA) levels relative to controls [2]	half-life at 3 µM [1, 3]	t1/2, Mouse Plasma, Diastereoisomer B [1, 4]
COC(=O)CCNC(=O)[C@@H]1OP(=O)(OCCSC(=O)C(C)(C)C)OCC1(C)C (stereo partly drawn) [Compound No. 2-133, Methyl 3-((4R)-5,5-dimethyl-2-oxido-2-(2-(pivaloylthio)ethoxy)-1,3,2-dioxaphosphinane-4-carboxamido)propanoate]	–	–	89.53 Fold Increase	–	–
COC(=O)CCNC(=O)[C@@H]1OP(=O)(N[C@@H](C)C(=O)OCc2ccccc2)OCC1(C)C (stereo partly drawn) [Compound No. 11, Benzyl ((4R)-4-((3-methoxy-3-oxopropyl)carbamoyl)-5,5-dimethyl-2-oxido-1,3,2-dioxaphosphinan-2-yl)-L-alaninate]	–	–	0.99 Fold Increase	–	–
CC(C)(C)C(=O)OCO[P@@]1(=O)OCC(C)(C)[C@H](C(=O)NCCC(=O)O)O1 [Compound No. 91, 3-((2S,4R)-5,5-dimethyl-2-oxido-2-((pivaloyloxy)methoxy)-1,3,2-dioxaphosphinane-4-carboxamido)propanoic acid]	30.6 min	–	4.03 Fold Increase	–	–
COC(=O)CCNC(=O)[C@@H]1OP(=O)(N[C@@H](C)C(=O)OC)OCC1(C)C (stereo partly drawn) [compound 5, methyl 3-((4R)-2-(((S)-1-methoxy-1-oxopropan-2-yl)amino)-5,5-dimethyl-2-oxido-1,3,2-dioxaphosphinane-4-carboxamido)propanoate]	–	–	1.15 Fold Increase	< 9.6 min	<9.6 min
COC(=O)CCNC(=O)[C@@H]1OP(=O)(N[C@@H](Cc2ccccc2)C(=O)OCc2ccccc2)OCC1(C)C (stereo partly drawn) [compound 10, benzyl ((4R)-4-((3-methoxy-3-oxopropyl)carbamoyl)-5,5-dimethyl-2-oxido-1,3,2-dioxaphosphinan-2-yl)-L-phenylalaninate]	–	–	1.05 Fold Increase	–	–
COC(=O)CCNC(=O)[C@@H]1OP(=O)(N[C@H](C)C(=O)OC)OCC1(C)C (stereo partly drawn) [compound 16, methyl 3-((4R)-2-(((R)-1-methoxy-1-oxopropan-2-yl)amino)-5,5-dimethyl-2-oxido-1,3,2-dioxaphosphinane-4-carboxamido)propanoate]	–	–	1.21 Fold Increase	< 9.6 min	<9.6 min
CC1(C)COP(=O)(O)O[C@H]1C(=O)NCCC(=O)O [compound 108, 3-((4R)-2-hydroxy-5,5-dimethyl-2-oxido-1,3,2-dioxaphosphinane-4-carboxamido)propanoic acid]	–	–	1.07 Fold Increase	–	–
COC(=O)CCNC(=O)[C@@H]1OP(=O)(NCCN2CCCC2)OCC1(C)C (stereo partly drawn) [compound 109, methyl 3-((4R)-5,5-dimethyl-2-oxido-2-((2-(pyrrolidin-1-yl)ethyl)amino)-1,3,2-dioxaphosphinane-4-carboxamido)propanoate]	–	–	1.87 Fold Increase	< 9.6 min	–

Further lines, with some results ahead:

half-life at 3 µM ([1]; mouse, plasma)	t1/2, Mouse Plasma, Diastereoisomer B ([1]; mouse, plasma, 3 µM)	SMILES	PANK2−/− CoA (Fold Increase): fold increase in Coenzyme A (CoA) levels relative to controls [2]	half-life at 3 µM [1, 3]	t1/2, Mouse Plasma, Diastereoisomer B [1, 4]
< 9.6 min	<9.6 min	COC(=O)CCNC(=O)[C@@H]1OP(=O)(N[C@@H](C)C(=O)OCCc2ccccc2)OCC1(C)C (stereo partly drawn) [Compound No. 2, Methyl 3-((4R)-5,5-dimethyl-2-oxido-2-(((S)-1-oxo-1-phenethoxypropan-2-yl)amino)-1,3,2-dioxaphosphinane-4-carboxamido)propanoate]	6.80 Fold Increase	–	–
< 9.6 min	<9.6 min	COC(=O)CCNC(=O)[C@@H]1OP(=O)(OCOC(=O)c2ccccc2)OCC1(C)C (stereo partly drawn) [Compound No. 64, (((4R)-4-((3-methoxy-3-oxopropyl)carbamoyl)-5,5-dimethyl-2-oxido-1,3,2-dioxaphosphinan-2-yl)oxy)methyl benzoate]	278.1 Fold Increase	–	–
< 9.6 min	<9.6 min	COC(=O)CCNC(=O)[C@@H]1OP(=O)(OCOC(=O)C(C)(C)C)OCC1(C)C (stereo partly drawn) [Compound No. 65, (((4R)-4-((3-methoxy-3-oxopropyl)carbamoyl)-5,5-dimethyl-2-oxido-1,3,2-dioxaphosphinan-2-yl)oxy)methyl pivalate]	222.6 Fold Increase	–	–
< 9.6 min	<9.6 min	COC(=O)CCNC(=O)[C@@H]1OP(=O)(OCOC(=O)OC(C)C)OCC1(C)C (stereo partly drawn) [Compound No. 69, Methyl 3-((4R)-2-(((isopropoxycarbonyl)oxy)methoxy)-5,5-dimethyl-2-oxido-1,3,2-dioxaphosphinane-4-carboxamido)propanoate]	181.1 Fold Increase	–	–
< 9.6 min	<9.6 min	COC(=O)CCNC(=O)[C@@H]1OP(=O)(OCOC(=O)c2cncs2)OCC1(C)C (stereo partly drawn) [Compound No. 70, (((4R)-4-((3-methoxy-3-oxopropyl)carbamoyl)-5,5-dimethyl-2-oxido-1,3,2-dioxaphosphinan-2-yl)oxy)methyl thiazole-5-carboxylate]	87.75 Fold Increase	–	–
< 9.6 min	<9.6 min	CCc1cc(C(=O)OCOP2(=O)OCC(C)(C)[C@H](C(=O)NCCC(=O)OC)O2)n(C)n1 (stereo partly drawn) [Compound No. 84, (((4R)-4-((3-methoxy-3-oxopropyl)carbamoyl)-5,5-dimethyl-2-oxido-1,3,2-dioxaphosphinan-2-yl)oxy)methyl 3-ethyl-1-methyl-1H-pyrazole-5-carboxylate]	325.47 Fold Increase	–	–
< 9.6 min	<9.6 min	COC(=O)CCNC(=O)[C@@H]1OP(=O)(N[C@@H](C)C(=O)OCc2cc(C)cc(C)c2)OCC1(C)C (stereo partly drawn) [compound 3, (2S)-3,5-dimethylbenzyl 2-(((4R)-4-((3-methoxy-3-oxopropyl)carbamoyl)-5,5-dimethyl-2-oxido-1,3,2-dioxaphosphinan-2-yl)amino)propanoate]	1.65 Fold Increase	–	–
< 9.6 min	<9.6 min	COC(=O)[C@H](C)NP1(=O)OCC(C)(C)[C@H](C(=O)NCCC(=O)OCc2ccncc2)O1 (stereo partly drawn) [compound 20, (2S)-methyl 2-(((4R)-5,5-dimethyl-2-oxido-4-((3-oxo-3-(pyridin-4-ylmethoxy)propyl)carbamoyl)-1,3,2-dioxaphosphinan-2-yl)amino)propanoate]	0.9 Fold Increase	–	–
< 9.6 min	<9.6 min	COC(=O)CCNC(=O)[C@@H]1OP(=O)(N[C@@H](C)C(=O)OCc2cccnc2)OCC1(C)C (stereo partly drawn) [compound 24, methyl 3-((4R)-5,5-dimethyl-2-oxido-2-(((S)-1-oxo-1-(pyridin-3-ylmethoxy)propan-2-yl)amino)-1,3,2-dioxaphosphinane-4-carboxamido)propanoate]	0.92 Fold Increase	–	–
< 9.6 min	<9.6 min	COC(=O)CCNC(=O)[C@@H]1OP(=O)(NCCC(=O)OCc2ccccc2)OCC1(C)C (stereo partly drawn) [compound 117, benzyl 3-(((4R)-4-((3-methoxy-3-oxopropyl)carbamoyl)-5,5-dimethyl-2-oxido-1,3,2-dioxaphosphinan-2-yl)amino)propanoate]	1.06 Fold Increase	–	–
